This assay deals with T1, ERα protein (HiBiT-tagged) in ESR1_HiBiT KI MCF7 cells (Homo sapiens, UniProt P03372).
T1 sequence (P03372 1-595): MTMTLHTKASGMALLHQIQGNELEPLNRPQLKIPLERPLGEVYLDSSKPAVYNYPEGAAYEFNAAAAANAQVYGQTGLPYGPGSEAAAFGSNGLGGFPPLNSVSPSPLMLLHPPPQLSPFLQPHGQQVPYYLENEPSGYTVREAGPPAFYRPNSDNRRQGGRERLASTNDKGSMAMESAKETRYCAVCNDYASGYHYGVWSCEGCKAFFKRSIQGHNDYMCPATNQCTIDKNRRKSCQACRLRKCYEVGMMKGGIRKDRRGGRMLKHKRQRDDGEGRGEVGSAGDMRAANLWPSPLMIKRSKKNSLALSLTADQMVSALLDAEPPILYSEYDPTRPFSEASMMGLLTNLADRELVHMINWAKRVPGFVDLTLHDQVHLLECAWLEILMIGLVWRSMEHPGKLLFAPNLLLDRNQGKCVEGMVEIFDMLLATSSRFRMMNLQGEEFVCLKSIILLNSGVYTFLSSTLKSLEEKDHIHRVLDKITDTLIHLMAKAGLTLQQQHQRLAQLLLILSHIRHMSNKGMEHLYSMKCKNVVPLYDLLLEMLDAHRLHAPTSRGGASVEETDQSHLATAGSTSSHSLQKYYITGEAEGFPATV
In words: Nano Glo HiBiT Lytic Degradation Assay. As to conditions: 6 hours with compound, 14-point dose response 1:3, bell-shape curve fit, half-maximal effect of first Hill model, read-out: MCF7 ESR1 HiBiT - (DC50). It is filed as cell-based. In short, it runs like this:
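ESR1_HiBiT knock-in MCF7 cells were seeded 24 h before treatment, then exposed to compounds for 6 h at 37° C (14-point 1:3 curves, 10 mM top stock, 0.1% DMSO final, duplicates). HiBiT-ERα was read by lytic LgBiT luminescence, background-subtracted and normalized to DMSO. DC50 was taken from the half-maximal point of the first Hill component of a bell-shaped fit.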

This is an account of results in patent US20250388565A1, “ESTROGEN RECEPTOR ALPHA DEGRADERS AND METHODS OF USE THEREOF” (Relay Therapeutics, Inc., priority 2022, published 2025).

As a reminder, the DC50 is the concentration at which degradation of the target reaches its halfway point. Take `O=C1CCC(N2Cc3cc([C@H]4CCN(CC5CCN(c6ccc([C@@H]7c8ccc(O)cc8CC[C@@H]7c7ccccc7)cc6)CC5)C[C@H]4O)ccc3C2=O)C(=O)N1` (single isomer, unassigned) [II-108]: the DC50 is 0.45 nM. In the case of `CC(C)[C@H]1CCc2cc(O)ccc2[C@H]1c1ccc(N2CCC(CN3CCN(c4ccc5c(c4)CN(C4CCC(=O)NC4=O)C5=O)CC3)CC2)cc1` (stereo in doubt) [Compound I-128, (R)-3-(5-(4-((1-(4-((1R,2R)-6-hydroxy-2-isopropyl-1,2,3,4-tetrahydronaphthalen-1-yl)phenyl)piperidin-4-yl)methyl)piperazin-1-yl)-1-oxoisoindolin-2-yl)piperidine-2,6-dione] it was 0.1 nM; in that of `CC(C)[C@@H]1CCc2cc(O)ccc2[C@@H]1c1ccc(N2CCC(CN3CCN(c4ccc5c(c4)CN(C4CCC(=O)NC4=O)C5=O)CC3)CC2)cc1` (stereo in doubt) [Compound I-129, (R)-3-(5-(4-((1-(4-((1S,2S)-6-hydroxy-2-isopropyl-1,2,3,4-tetrahydronaphthalen-1-yl)phenyl)piperidin-4-yl)methyl)piperazin-1-yl)-1-oxoisoindolin-2-yl)piperidine-2,6-dione], 5 nM. Under `O=C1CC[C@H](N2Cc3cc(N4CCN(CC5CCN(c6ccc(C7c8ccc(O)cc8CCC7c7ccncc7)cc6)CC5)CC4)ccc3C2=O)C(=O)N1` (stereo in doubt) [Compound I-133, (S)-3-(5-(4-((1-(4-((1R,2S)-6-hydroxy-2-(pyridine-4-yl)-1,2,3,4-tetrahydronaphthalen-1-yl)phenyl)piperidin-4-yl)methyl)piperazin-1-yl)-1-oxoisoindolin-2-yl)piperidine-2,6-dione] stands not below 10000 nM; under `O=C1CC[C@H](N2Cc3cc(N4CCN(CC5CCN(c6ccc(C7c8ccc(O)cc8CCC7C7CCCCC7)cn6)CC5)CC4)ccc3C2=O)C(=O)N1` (stereo in doubt) [Compound I-154, (S)-3-(5-(4-((1-(5-((1S,2R)-2-cyclohexyl-6-hydroxy-1,2,3,4-tetrahydronaphthalen-1-yl)pyridin-2-yl)piperidin-4-yl)methyl)piperazin-1-yl)-1-oxoisoindolin-2-yl)piperidine-2,6-dione], 3300 nM. Under `O=C1CC[C@H](N2Cc3cc(N4CCN(CC5CCN(c6ccc(C7c8ccc(O)cc8CCC7C7CCCCC7)cn6)CC5)CC4)ccc3C2=O)C(=O)N1` (stereo in doubt) [Compound I-155, (S)-3-(5-(4-((1-(5-((1R,2S)-2-cyclohexyl-6-hydroxy-1,2,3,4-tetrahydronaphthalen-1-yl)pyridin-2-yl)piperidin-4-yl)methyl)piperazin-1-yl)-1-oxoisoindolin-2-yl)piperidine-2,6-dione] stands 1 nM; under `O=C1CCC(N2Cc3cc(N4CCN(CC5CCN(c6c(F)cc([C@@H]7c8ccc(O)cc8CC[C@@H]7C7CCCCC7)cc6F)CC5)CC4)ccc3C2=O)C(=O)N1` (stereo in doubt) [Compound I-159, (R)-3-(5-(4-((1-(4-((1R,2R)-2-cyclohexyl-6-hydroxy-1,2,3,4-tetrahydronaphthalen-1-yl)-2,6-difluorophenyl)piperidin-4-yl)methyl)piperazin-1-yl)-1-oxoisoindolin-2-yl)piperidine-2,6-dione], 10 nM.

In the case of `O=C1CCC(N2Cc3cc(N4CCN(CC5CCN(c6c(F)cc([C@H]7c8ccc(O)cc8CC[C@H]7C7CCCCC7)cc6F)CC5)CC4)ccc3C2=O)C(=O)N1` (stereo in doubt) [Compound I-160, (R)-3-(5-(4-((1-(4-((1S,2S)-2-cyclohexyl-6-hydroxy-1,2,3,4-tetrahydronaphthalen-1-yl)-2,6-difluorophenyl)piperidin-4-yl)methyl)piperazin-1-yl)-1-oxoisoindolin-2-yl)piperidine-2,6-dione], the DC50 is not below 10000 nM.

Turning to `O=C1CCC(c2cccc(N3CCC4C3CCN4CC3CCN(c4ccc([C@@H]5c6ccc(O)cc6CC[C@@H]5c5ccccc5)cc4)CC3)c2)C(=O)N1` (stereo in doubt) [Compound I-178, 3-(3-((3aS,6aS)-4-((1-(4-((1R,2S)-6-hydroxy-2-phenyl-1,2,3,4-tetrahydronaphthalen-1-yl)phenyl)piperidin-4-yl)methyl)hexahydropyrrolo[3,2-b]pyrrol-1 (2H)-yl)phenyl)piperidine-2,6-dione], the DC50 was determined as 3300 nM. In the case of `O=C1CCC(c2ccc3c(c2)CN(C2CCN(CC4CCN(c5ccc([C@H]6c7ccc(O)cc7CC[C@H]6c6ccccc6)cc5)CC4)CC2)CC3)C(=O)N1` (stereo in doubt) [Compound I-185, 3-(2-(1-((1-(4-((1S,2R)-6-hydroxy-2-phenyl-1,2,3,4-tetrahydronaphthalen-1-yl)phenyl)piperidin-4-yl)methyl)piperidin-4-yl)-1,2,3,4-tetrahydroisoquinolin-7-yl)piperidine-2,6-dione] it was 737 nM. Under `Cc1ccc([C@@H]2CC(F)(F)c3cc(O)ccc3[C@@H]2c2ccc(N3CCC(CN4CCN(c5ccc6c(c5)CN(C5CCC(=O)NC5=O)C6=O)CC4)CC3)cc2)cc1` (stereo in doubt) [Compound I-321, (R)-3-(5-(4-((1-(4-((1S,2R)-4,4-difluoro-6-hydroxy-2-(p-tolyl)-1,2,3,4-tetrahydronaphthalen-1-yl)phenyl)piperidin-4-yl)methyl)piperazin-1-yl)-1-oxoisoindolin-2-yl)piperidine-2,6-dione] stands 0.44 nM; under `O=C1CC[C@H](N2Cc3cc(N4CCN(CC5CCN(c6ccc([C@@H]7c8ccc(O)cc8CO[C@@H]7c7ccccc7)cc6)CC5)CC4)ccc3C2=O)C(=O)N1` [Compound I-3, (S)-3-(5-(4-((1-(4-((3S,4R)-7-hydroxy-3-phenylisochroman-4-yl)phenyl)piperidin-4-yl)methyl)piperazin-1-yl)-1-oxoisoindolin-2-yl)piperidine-2,6-dione], 0.27 nM; under `O=C1CC[C@H](N2Cc3cc(N4CCN(CC5CCN(c6ccc([C@H]7c8ccc(O)cc8CO[C@H]7c7ccccc7)cc6)CC5)CC4)ccc3C2=O)C(=O)N1` [Compound I-4, (S)-3-(5-(4-((1-(4-((3R,4S)-7-hydroxy-3-phenylisochroman-4-yl)phenyl)piperidin-4-yl)methyl)piperazin-1-yl)-1-oxoisoindolin-2-yl)piperidine-2,6-dione], 59.4 nM. With `O=C1CC[C@H](N2Cc3cc(N4CCN(CC5CCN(c6ccc([C@H]7c8ccc(O)cc8CC[C@H]7C7CCCCC7)cc6)CC5)CC4)ccc3C2=O)C(=O)N1` [Compound I-5, (3S)-3-[5-[4-[[1-[4-[(1S,2S)-2-cyclohexyl-6-hydroxy-tetralin-1-yl]phenyl]-4-piperidyl]methyl]piperazin-1-yl]-1-oxo-isoindolin-2-yl]piperidine-2,6-dione], the DC50 was not below 10000 nM. In the case of `O=C1CC[C@H](N2Cc3cc(N4CCN(CC5CCN(c6ccc([C@@H]7c8ccc(O)cc8CC[C@@H]7C7CCCCC7)cc6)CC5)CC4)ccc3C2=O)C(=O)N1` [Compound I-6, (3S)-3-[5-[4-[[1-[4-[(1R,2R)-2-cyclohexyl-6-hydroxy-tetralin-1-yl]phenyl]-4-piperidyl]methyl]piperazin-1-yl]-1-oxo-isoindolin-2-yl]piperidine-2,6-dione] it was 2.24 nM.
